The subject of experiment [1] is RPMI-8226 cells. Briefly: Metabolic studies: glucose depletion from media and intracellular pH. It counts as cell-based, human. The method, then:
(§1) Cell survival was assayed by exclusion of propidium iodide (PI; 10 μg/ml) by unfixed cells. Annexin V-FITC (Pharmingen) or 3, 3′-dihexyloxacarbocyanine iodide (DiOC6(3); Molecular Probes) staining was analyzed together with PI to discriminate early apoptotic cells. Apoptotic cells were also measured as sub-G1 events among ethanol-fixed cells stained with 10 μg/ml PI. All cell samples were analyzed using a benchtop FACSCalibur™ (Becton Dickinson, San Jose, Calif.). Flow data were analyzed using MultiCycle AV software (Phoenix Flow Systems). For intracellular pH measurements, cell pellets were washed once and resuspended in 2 ml of HEPES-buffered medium (no phenol red and no serum). Carboxy-SNARF-1-AM (Molecular Probes, 1 mM stock in DMSO, stored at −20° C.) was added to a final concentration of 10 μM, and the cells were incubated for 30 min at 37° C. Following incubation with SNARF, cells were sedimented and the pellets were held on ice. Immediately before analysis, pellets were resuspended in […] (HBSS; experimental buffer) or high-[K+] buffer containing nigericin (calibration samples).
The analysis by flow cytometry (Becton Dickinson FACScan™) was done with excitation at 488 nm, and emission at 585 and 640 nm (corresponding to the H^+-bound and—free forms of carboxy-SNARF-1-AM, respectively). […]

Experiment [2] has as its target T1, Bcl-xL(ΔC) WT (Homo sapiens, UniProt Q07817).
T1 construct: inferred from Ni-NTA purification and the pET22b(+) NdeI/XhoI cloning); made in house; host or cells: Escherichia coli BL21(DE3) carrying pUB520
The experiment is described as follows: Pore-forming activity, calcein release from liposomes. It counts as biochemical. The method, then: Large unilamellar vesicles composed of 60% dioleoylphophatidylcholine and 40% dioleoylphosphatidylglycerol were prepared by the extrusion method of Mayer et al., supra. Lipid stocks, in chloroform, were mixed and dried under a stream of nitrogen gas. The lipid was resuspended by vortexing for 30 min in a solution of 40 mM calcein (Molecular Probes), 25 mM KCl, and 10 mM KOAc, pH 5.0. After 10 freeze-thaw cycles, the lipid suspension was extruded through two 0.1 μm pore diameter Nucleopore filters. Non-entrapped dye was removed by passage over a Sephadex G10 column (Amersham Biosciences). Lipid concentration was measured using the ammonium ferrothiocyanate method (Stewart, Anal. Biochem. 104:10-14, 1980).
For pore assays, recombinant truncated Bcl-2 family protein or mutant protein (Bcl-xL(ΔC)) (500 nM) was added to large unilamellar vesicles (60 μM lipid concentration) in 100 mM KCl, 10 mM KOAc, pH 5.0, and fluorescence measured (490 nm excitation, 520 nm emission) with a Fluoromax-3 spectrophotometer. Peptides of the BH3 domain were incubated with the BCl-xL(ΔC) 5 min prior to mixing with liposomes. AA1 was added to liposomes 1 min before adding the Bcl-xL(ΔC) protein. Samples for kinetic assays were analyzed in a thermostatted cuvette at 37° C. with constant stirring. Dose responses were measured in black quartz microplates (Hellma) at room temperature. Calcein release was expressed as percentage of maximum release with detergent lysis (0.1% Triton X-100).

The test system of experiment [3] is myeloid leukemia cell lines. Briefly: Propidium iodide exclusion cytotoxicity. It counts as cell-based, human. The note with it: 20 μg/ml, even after 48 h; seven or eight cell lines. The method, then:
as §1

The subject of experiment [4] is NB4, an acute promyelocytic cell line. Briefly: Propidium iodide exclusion cytotoxicity. It counts as cell-based, human. The procedure: as §1
The test system of experiment [5] is leukemia and lymphoma cell lines (DHL4, Daudi, Ramos, Molt4 and Jurkat). The experiment is described as follows: Propidium iodide exclusion cytotoxicity. It counts as cell-based, human. The note with it: 5 to about 20 μg/ml. The procedure:
as §1

The test system of experiment [6] is AML-12.Bcl-xL cells. Briefly: Sensitivity of non-tumorigenic liver cells to antimycin A. It counts as cell-based, mouse. The note with it: vs AML-12 control transfectants. The text has this: The effects of BCl-xL over-expression on non-tumorigenic cells was also examined. […] Briefly, AML-12 cells were transfected as described above with pSFFV.Bcl-xL(sense) and pSFFV.neo. AML-12-pSFFV. Bcl-xL(sense) cells expressed approximately 3 to 4 fold higher BCl-xL protein levels than did AML-12 cells transfected with the control plasmid, pSFFV.neo, when assayed by Western blot analysis.

For experiment [7], the system named is TABX2S cells. Briefly: Intracellular ATP, luciferase-luciferin assay. It counts as cell-based, murine. The note with it: 2 μg/ml plus fructose 50 mM. The method, then:
(§2) Fructose is a substrate that provides ATP production through the glycolytic pathway. After a 30-60 minute incubation, cells were harvested and intracellular ATP concentrations were determined by an ATP-dependent luciferase-luciferin assay (Sigma, St. Louis, Mo.). The ATP concentrations in DMSO-treated cells were taken as 100%. In parallel experiments, cell viability was determined after six hours.

For experiment [8], the system named is TABX1A cells. The experiment is described as follows: Intracellular ATP, luciferase-luciferin assay. It counts as cell-based, murine. To be noted: 2 μg/ml plus fructose 50 mM. The method, then: as §2

T1 sequence (Q07817 1-211 limits assumed, stated change not applied): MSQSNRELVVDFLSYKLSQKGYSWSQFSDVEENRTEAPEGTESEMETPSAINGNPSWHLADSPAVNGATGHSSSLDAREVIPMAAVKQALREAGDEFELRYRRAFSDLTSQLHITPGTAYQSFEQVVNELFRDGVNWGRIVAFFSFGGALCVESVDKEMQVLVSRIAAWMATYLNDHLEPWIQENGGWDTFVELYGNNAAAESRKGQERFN

2-methoxy antimycin A [2-OMeA]: the “glycolysis (depletion of glucose from culture media, reduction in intracellular pH)” value in experiment [1] was “stimulated glycolysis”.

Turning to `CCCCCC[C@H]1C(=O)O[C@H](C)[C@H](NC(=O)c2cccc(NC=O)c2OC)C(=O)O[C@@H](C)[C@@H]1OC(=O)CC(C)C` [2-OMeA1, 2-methoxy antimycin A1], the “effect on Bcl-xL pore-forming activity” value in experiment [2] was “inhibited”.

Take antimycin A: the results for the “sensitivity (PI exclusion)” value in experiment [3], in experiment [4] and in experiment [5] were “resistant”, “modestly antimycin-sensitive” and “sensitive”, respectively. Moreover, the “sensitivity to antimycin A” value in experiment [6] was “increased sensitivity”. In addition, the “ATP level, of control” value in experiment [7] and in experiment [8] was “approximately 60%” throughout.
